The values that follow come from article PMC5080841 (Journal of medicinal chemistry, 2016).

The target in experiment [1] is HemO (Pseudomonas aeruginosa, UniProt O69002). Nature of the experiment: STD NMR binding epitope. The settings on record: relative to the strongest interacting proton.
The target of experiment [2] is T1, P. aeruginosa HemO (Pseudomonas aeruginosa, UniProt O69002).
T1 sequence (O69002 1-198): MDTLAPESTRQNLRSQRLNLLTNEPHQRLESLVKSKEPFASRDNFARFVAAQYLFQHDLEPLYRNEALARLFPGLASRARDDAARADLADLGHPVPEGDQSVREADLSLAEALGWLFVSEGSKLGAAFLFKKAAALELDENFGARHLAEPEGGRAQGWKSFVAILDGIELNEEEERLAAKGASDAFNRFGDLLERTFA
The settings on record: read-out: binding affinity for HemO; previous work; cited from earlier work.

Experiment [3] has as its system P. aeruginosa. The following applies: previous work; cited from earlier work.
Experiment [4] has as its system Caenorhabditis elegans infection model. The following applies: previous work; cited from earlier work.

Turning to `Cl.NC(N)=N/N=C/c1cccc(OCc2ccccc2)c1` [Compound 24, (E)-2-(3-(Benzyloxy)benzylidene)hydrazinecarboximidamide Hydrochloride], in experiment [1], the “relative STD interaction of the benzylimine proton” value is listed as 100% and the “relative STD interaction of the para-position proton” value came to 82%.

For the molecule `CN(C)c1ccc(/C=N/NC(=N)N)cc1.Cl` [Compound 1, (E)-2-(4-(Dimethylamino)benzylidene)hydrazine-carboximidamide Hydrochloride], the Kd in experiment [2] was 31.2 µM. The “MIC50 against P. aeruginosa” value in experiment [3] is 250 µg/mL. In experiment [4], the “curing activity in Caenorhabditis elegans infection model” value is given as “exhibited curing activity”.
